{
  "source": "ChEMBL document CHEMBL1153225",
  "about": "(Bioorg Med Chem Lett, 2010)",
  "system": "RAW264.7",
  "experiment": "Antiresorptive activity in mouse RAW264.7 cells assessed as inhibition of tartrate-resistant acid phosphatase activity at 60 uM",
  "design": "scale not given: the % may be the effect or the level left",
  "data": [
    {"smiles": "CCCCC/C(=N/S(=O)(=O)c1ccc(C)cc1)N1C(C)CCCC1C", "note": "(stereo unspecified)", "values": [
      {"measurement": "Activity", "value": 0, "unit": "%"}
    ]}
  ]
}
